Experimental data published in ChEMBL document CHEMBL1158438, “Discovery and structure-guided drug design of inhibitors of 11beta-hydroxysteroid-dehydrogenase type I based on a spiro-carboxamide scaffold” (Bioorg Med Chem Lett, 2009).

Key:
[1] = species: Homo sapiens; assay: Selectivity ratio, IC50 for human recombinant 11beta-HSD2 to IC50 for human recombinant 11beta-HSD1
[2] = target: 11-beta-hydroxysteroid dehydrogenase 1 (Mus musculus, UniProt P50172); assay: Inhibition of 11beta-HSD1 in mouse liver microsomes fraction; set-up: species or system Microsome
Chain of 11-beta-hydroxysteroid dehydrogenase 1 (Mus musculus, UniProt P50172) (P50172 whole entry): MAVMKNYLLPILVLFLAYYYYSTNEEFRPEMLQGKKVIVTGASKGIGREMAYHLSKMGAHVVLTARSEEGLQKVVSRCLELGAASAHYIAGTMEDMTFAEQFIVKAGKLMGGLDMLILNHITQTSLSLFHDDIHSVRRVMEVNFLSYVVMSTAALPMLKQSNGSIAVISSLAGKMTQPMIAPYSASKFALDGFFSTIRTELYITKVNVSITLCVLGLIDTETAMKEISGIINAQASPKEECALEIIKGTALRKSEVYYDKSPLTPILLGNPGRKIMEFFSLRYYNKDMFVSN

[3] = target: T1, 11-beta-hydroxysteroid dehydrogenase 1 (Homo sapiens, UniProt P28845)
Target sequence in this assay (P28845 whole entry, looked up): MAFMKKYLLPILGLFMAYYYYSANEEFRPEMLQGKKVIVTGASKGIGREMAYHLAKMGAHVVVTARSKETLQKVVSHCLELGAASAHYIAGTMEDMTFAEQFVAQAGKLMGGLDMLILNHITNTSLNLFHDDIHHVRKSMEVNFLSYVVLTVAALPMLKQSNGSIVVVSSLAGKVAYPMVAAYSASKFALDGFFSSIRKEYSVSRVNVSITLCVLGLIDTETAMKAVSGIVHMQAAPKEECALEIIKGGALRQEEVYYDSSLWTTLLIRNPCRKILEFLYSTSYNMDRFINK

[4] = target: T2, 11-beta-hydroxysteroid dehydrogenase type 2 (Homo sapiens, UniProt P80365); assay: Inhibition of human recombinant 11beta-HSD2 expressed in Escherichia coli by HTRF assay
T2 sequence (P80365 whole entry): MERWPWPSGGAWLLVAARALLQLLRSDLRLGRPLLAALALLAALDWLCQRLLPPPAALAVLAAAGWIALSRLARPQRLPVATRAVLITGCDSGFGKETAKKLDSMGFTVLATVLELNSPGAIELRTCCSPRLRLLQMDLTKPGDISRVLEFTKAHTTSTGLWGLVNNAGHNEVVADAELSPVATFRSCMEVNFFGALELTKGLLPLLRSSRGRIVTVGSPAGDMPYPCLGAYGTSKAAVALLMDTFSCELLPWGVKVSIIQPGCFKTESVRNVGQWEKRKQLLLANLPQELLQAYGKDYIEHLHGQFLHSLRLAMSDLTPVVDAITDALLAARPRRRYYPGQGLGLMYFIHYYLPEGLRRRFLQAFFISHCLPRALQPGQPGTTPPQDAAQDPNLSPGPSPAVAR

[5] = target: T1, 11-beta-hydroxysteroid dehydrogenase 1; assay: Inhibition of human recombinant 11beta-HSD1 expressed in Escherichia coli by HTRF assay
Target sequence in this assay (P28845 whole entry): as the sequence (P28845 whole entry, looked up) above

[6] = target: T1, 11-beta-hydroxysteroid dehydrogenase 1; assay: Inhibition of human 11beta-HSD1

**Q.** For `O=C(N1CCC2(CCCCC2)C1)C1(c2ccccc2)CC1`, which Ratio IC50 [1] is on record?
**A.** The Ratio IC50 was over 200000.

**Q.** What about the IC50 [2] of the same compound?
**A.** The IC50 was 377 nM.

**Q.** What about the BEI [3] of the same compound?
**A.** The BEI was 32.7 kDa-1.

**Q.** What about the IC50 [4] of the same compound?
**A.** Its IC50 is over 100000 nM.

**Q.** What about the IC50 [5] of the same compound?
**A.** Its IC50 is 0.5 nM.

**Q.** Which Ratio IC50 [1] does the source give for `O=C(N1CCC2(CCCc3ccccc32)C1)C1(c2ccc(Cl)cc2)CC1` (stereo not given) here?
**A.** The Ratio IC50 was over 4500.

**Q.** And the IC50 [2]?
**A.** The IC50 was 3400 nM.

**Q.** What about the BEI [3] of the same compound?
**A.** Its BEI is 20.9 kDa-1.

**Q.** What about the IC50 [4] of the same compound?
**A.** The IC50 was over 100000 nM.

**Q.** And the IC50 [5]?
**A.** The IC50 was 22 nM.

**Q.** How did the Ratio IC50 [1] turn out when `O=C(N1CCC2(CCCCC2)C1)C1(c2ccc(Cl)cc2)CC1` was run?
**A.** Its Ratio IC50 is over 16000.

**Q.** What about the IC50 [2] of the same compound?
**A.** The IC50 was 3400 nM.

**Q.** What about the BEI [3] of the same compound?
**A.** Its BEI is 25.9 kDa-1.

**Q.** What about the IC50 [4] of the same compound?
**A.** Its IC50 is over 100000 nM.

**Q.** And the IC50 [5]?
**A.** Its IC50 is 6 nM.

**Q.** What does the source list for `O=C1CC2(CCN(C(=O)C3(c4ccccc4)CC3)CC2)Oc2ccc(F)cc21`?
**A.** BEI [6]: 14.8 kDa-1; IC50 [6]: 2500 nM

**Q.** How did the IC50 [2] turn out when `O=C(N1CCC2(CCc3ccccc32)C1)C1(c2ccc(Cl)cc2)CC1` (stereo not given) was run?
**A.** Its IC50 is 2600 nM.

**Q.** And the BEI [3]?
**A.** Its BEI is 21.6 kDa-1.

**Q.** What about the IC50 [4] of the same compound?
**A.** The IC50 was over 100000 nM.
